In ChEMBL document CHEMBL5647694, “Novel orally bioavailable EZH1/2 dual inhibitors with greater antitumor efficacy than an EZH2 selective inhibitor” (Cancer Sci, 2017) one finds inhibition data, which are given here for two compounds.

Assay [1] deals with Testis-specific serine/threonine-protein kinase 2 (Homo sapiens) (UniProt Q96PF2). The assay is described as follows: Inhibition of N-terminal GST-fused full length human TSSK2 (1 to 358 residues) expressed in baculovirus expression system using GS peptide as substrate at 1 uM in presence of ATP by Mobility shift assay.
Sequence of Testis-specific serine/threonine-protein kinase 2 (Homo sapiens) (Q96PF2 whole entry, the tested form may be a part): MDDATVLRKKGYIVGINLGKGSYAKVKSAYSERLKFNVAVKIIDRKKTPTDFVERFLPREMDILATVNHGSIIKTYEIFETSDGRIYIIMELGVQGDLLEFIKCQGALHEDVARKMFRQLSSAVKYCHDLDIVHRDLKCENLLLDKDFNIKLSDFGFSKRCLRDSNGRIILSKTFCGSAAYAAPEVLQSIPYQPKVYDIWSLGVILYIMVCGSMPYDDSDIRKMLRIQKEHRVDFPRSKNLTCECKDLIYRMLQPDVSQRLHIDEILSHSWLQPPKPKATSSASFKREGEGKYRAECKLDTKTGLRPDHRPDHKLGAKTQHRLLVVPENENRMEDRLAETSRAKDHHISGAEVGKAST
The target of assay [2] is MAP/microtubule affinity-regulating kinase 3 (Homo sapiens) (UniProt P27448). The assay is described as follows: Inhibition of N-terminal GST-fused full length human MARK3 (1 to 729 residues) expressed in baculovirus expression system using CHKtide as substrate at 1 uM in presence of ATP by Mobility shift assay.
Sequence of MAP/microtubule affinity-regulating kinase 3 (Homo sapiens) (P27448 whole entry, looked up, the tested form may be a part): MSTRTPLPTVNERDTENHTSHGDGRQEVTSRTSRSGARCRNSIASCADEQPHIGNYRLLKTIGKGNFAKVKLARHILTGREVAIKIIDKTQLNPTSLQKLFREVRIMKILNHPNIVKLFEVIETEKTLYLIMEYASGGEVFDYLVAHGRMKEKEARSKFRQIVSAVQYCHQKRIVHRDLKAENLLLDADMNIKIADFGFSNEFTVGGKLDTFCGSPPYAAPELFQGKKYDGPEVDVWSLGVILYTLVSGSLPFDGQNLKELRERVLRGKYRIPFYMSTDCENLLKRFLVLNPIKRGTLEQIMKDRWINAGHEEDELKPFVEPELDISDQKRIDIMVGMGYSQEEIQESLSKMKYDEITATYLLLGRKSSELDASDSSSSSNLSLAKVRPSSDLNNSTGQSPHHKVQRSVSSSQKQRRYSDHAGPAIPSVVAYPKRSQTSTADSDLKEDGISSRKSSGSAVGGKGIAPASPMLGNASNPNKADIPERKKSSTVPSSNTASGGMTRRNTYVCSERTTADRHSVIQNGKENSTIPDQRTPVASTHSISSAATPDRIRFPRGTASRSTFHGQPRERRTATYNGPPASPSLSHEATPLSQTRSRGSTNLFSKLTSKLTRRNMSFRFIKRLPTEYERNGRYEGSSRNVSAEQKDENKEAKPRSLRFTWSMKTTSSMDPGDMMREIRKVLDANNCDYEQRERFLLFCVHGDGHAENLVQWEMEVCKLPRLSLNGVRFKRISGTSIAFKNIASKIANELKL
Assay [3] addresses Non-receptor tyrosine-protein kinase TYK2 (Homo sapiens) (UniProt P29597). The assay is described as follows: Inhibition of N-terminal GST-tagged human TYK2 catalytic domain (871 to 1187 residues) expressed in baculovirus-infected Sf21 cells using Srctide as substrate at 1 uM in presence of ATP by Mobility shift assay.
The target of assay [4] is Dual specificity protein kinase CLK2 (Homo sapiens) (UniProt P49760). In words: Inhibition of N-terminal GST-fused full length human CLK2 (1 to 499 residues) expressed in baculovirus expression system using DYRKtide-F as substrate at 1 uM in presence of ATP by Mobility shift assay.
Assay [5] has as its target Ephrin type-A receptor 7 (Homo sapiens) (UniProt Q15375). The assay is described as follows: Inhibition of N-terminal GST-fused human EPHA7 cytoplasmic domain (595 to 998 residues) expressed in baculovirus-infected Sf21 cells using Blk/Lyntide as substrate at 1 uM in presence of ATP by Mobility shift assay.
The target in assay [6] is Protein kinase C delta type (Homo sapiens) (UniProt Q05655). In words: Inhibition of N-terminal GST-fused human full length PKC-delta (1 to 676 residues ) expressed in baculovirus expression system using PKC peptide as substrate at 1 uM in presence of ATP by Mobility shift assay.
Sequence of Protein kinase C delta type (Homo sapiens) (Q05655 whole entry, looked up, the tested form may be a part): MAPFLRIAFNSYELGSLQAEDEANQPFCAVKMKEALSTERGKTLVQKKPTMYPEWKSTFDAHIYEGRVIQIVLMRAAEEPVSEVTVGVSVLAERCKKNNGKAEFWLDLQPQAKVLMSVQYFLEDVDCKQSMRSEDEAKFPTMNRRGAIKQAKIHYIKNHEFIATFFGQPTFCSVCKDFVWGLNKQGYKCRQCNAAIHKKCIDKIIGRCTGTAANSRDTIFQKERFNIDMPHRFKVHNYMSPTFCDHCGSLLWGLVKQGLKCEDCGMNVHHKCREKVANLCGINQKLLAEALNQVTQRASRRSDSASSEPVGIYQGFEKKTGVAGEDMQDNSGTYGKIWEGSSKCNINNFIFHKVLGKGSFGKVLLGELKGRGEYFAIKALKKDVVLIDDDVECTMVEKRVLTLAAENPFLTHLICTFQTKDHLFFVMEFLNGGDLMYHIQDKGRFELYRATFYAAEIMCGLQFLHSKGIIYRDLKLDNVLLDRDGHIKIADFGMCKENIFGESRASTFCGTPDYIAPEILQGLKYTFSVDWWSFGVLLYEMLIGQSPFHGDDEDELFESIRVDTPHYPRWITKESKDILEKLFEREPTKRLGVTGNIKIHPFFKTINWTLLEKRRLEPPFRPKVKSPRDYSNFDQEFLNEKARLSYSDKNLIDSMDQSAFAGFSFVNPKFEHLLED
Assay [7] addresses Mitogen-activated protein kinase 13 (Homo sapiens) (UniProt O15264). The assay is described as follows: Inhibition of N-terminal GST-fused full length human p38delta (1 to 365 residues) expressed in Escherichia coli expression system using Modified Erktide as substrate at 1 uM in presence of ATP by Mobility shift assay.
For assay [8], the target named is STE20-like serine/threonine-protein kinase (Homo sapiens) (UniProt Q9H2G2). The assay is described as follows: Inhibition of N-terminal GST-fused full length human SLK (1 to 1152 residues) expressed in baculovirus expression system using Moesin-derived peptide as substrate at 1 uM in presence of ATP by Mobility shift assay.
In assay [9] the target is CDK2/Cyclin A2 (Homo sapiens) (UniProt P24941+P20248). The assay is described as follows: Inhibition of N-terminal GST-tagged full length human CDK2 (1 to 298 residues)/GST-tagged human CyclinA2 (1 to 432 residues) expressed in baculovirus-infected Sf21 cells using Modified Histone H1 as substrate at 1 uM in presence of ATP by Mobility shift assay.
Assay [10] deals with Dual specificity protein kinase CLK3 (Homo sapiens) (UniProt P49761). The assay is described as follows: Inhibition of N-terminal GST-fused full length human CLK3 (1 to 490 residues) expressed in baculovirus expression system using DYRKtide-F as substrate at 1 uM in presence of ATP by Mobility shift assay.
Assay [11] concerns the target Ephrin type-A receptor 4 (Homo sapiens) (UniProt P54764). The assay is described as follows: Inhibition of N-terminal GST-fused human EPHA4 cytoplasmic domain (586 to 986 residues) expressed in baculovirus-infected Sf21 cells using Blk/Lyntide as substrate at 1 uM in presence of ATP by Mobility shift assay.
For assay [12], the target named is Ribosomal protein S6 kinase alpha-4 (Homo sapiens) (UniProt O75676). In words: Inhibition of N-terminal GST-fused full length human MSK2 (1 to 772 residues) expressed in baculovirus expression system using Crosstide as substrate at 1 uM in presence of ATP by Mobility shift assay.
Sequence of Ribosomal protein S6 kinase alpha-4 (Homo sapiens) (O75676 whole entry, looked up, the tested form may be a part): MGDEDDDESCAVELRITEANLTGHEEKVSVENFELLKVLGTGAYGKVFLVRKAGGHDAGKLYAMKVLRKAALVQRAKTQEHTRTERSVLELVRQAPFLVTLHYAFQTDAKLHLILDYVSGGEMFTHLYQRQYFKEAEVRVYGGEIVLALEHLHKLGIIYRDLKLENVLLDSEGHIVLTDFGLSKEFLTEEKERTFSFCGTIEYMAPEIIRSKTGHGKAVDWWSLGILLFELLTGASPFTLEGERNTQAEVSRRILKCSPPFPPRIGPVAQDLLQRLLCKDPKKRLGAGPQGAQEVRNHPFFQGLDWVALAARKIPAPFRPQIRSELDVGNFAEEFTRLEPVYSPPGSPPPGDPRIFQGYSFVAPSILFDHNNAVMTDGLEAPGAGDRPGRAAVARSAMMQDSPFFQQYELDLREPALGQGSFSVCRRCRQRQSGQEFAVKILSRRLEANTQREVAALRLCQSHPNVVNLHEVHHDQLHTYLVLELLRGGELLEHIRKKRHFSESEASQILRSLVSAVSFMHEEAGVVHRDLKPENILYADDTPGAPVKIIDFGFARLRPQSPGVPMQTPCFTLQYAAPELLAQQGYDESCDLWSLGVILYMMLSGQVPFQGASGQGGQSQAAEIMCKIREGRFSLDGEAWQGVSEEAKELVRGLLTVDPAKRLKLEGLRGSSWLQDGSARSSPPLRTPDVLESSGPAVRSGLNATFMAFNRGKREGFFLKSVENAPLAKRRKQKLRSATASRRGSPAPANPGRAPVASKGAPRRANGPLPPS
The target in assay [13] is Mitogen-activated protein kinase 1 (Homo sapiens) (UniProt P28482). The assay is described as follows: Inhibition of N-terminal GST-fused full length human ERK2 (1 to 360 residues) expressed in Escherichia coli expression system using Modified Erktide as substrate at 1 uM in presence of ATP by Mobility shift assay.
Assay [14] addresses Dual specificity tyrosine-phosphorylation-regulated kinase 1B (Homo sapiens) (UniProt Q9Y463). The assay is described as follows: Inhibition of N-terminal GST-fused full length human DYRK1B (1 to 629 residues) expressed in baculovirus expression system using DYRKtide-F as substrate at 1 uM in presence of ATP by Mobility shift assay.
Assay [15] concerns the target CDK4/Cyclin D3 (Homo sapiens) (UniProt P11802+P30281). In words: Inhibition of N-terminal GST-tagged full length human CDK4 (1 to 303 residues)/N-terminal GST-tagged human CyclinD3 (1 to 292 residues) expressed in baculovirus-infected Sf21 cells using DYRKtide-F as substrate at 1 uM in presence of ATP by Mobility shift assay.
Assay [16] concerns the target Protein-tyrosine kinase 6 (Homo sapiens) (UniProt Q13882). The assay is described as follows: Inhibition of N-terminal GST-fused full length human BRK (2 to 451 residues) expressed in baculovirus-infected Sf21 cells using Blk/Lyntide as substrate at 1 uM in presence of ATP by Mobility shift assay.
The target in assay [17] is Serine/threonine-protein kinase Nek9 (Homo sapiens) (UniProt Q8TD19). The assay is described as follows: Inhibition of N-terminal GST-fused truncated human NEK9 (1 to 346, 733 to 979 residues) expressed in baculovirus expression system using CDK7 peptide as substrate at 1 uM in presence of ATP by Mobility shift assay.
Assay [18] has as its target Calcium/calmodulin-dependent protein kinase type II subunit delta (Homo sapiens) (UniProt Q13557). The assay is described as follows: Inhibition of N-terminal GST-tagged full length human CAMK2d (1 to 478 residues) expressed in baculovirus-infected Sf21 cells using GS peptide as substrate at 1 uM in presence of ATP by Mobility shift assay.
The target of assay [19] is Tyrosine-protein kinase JAK3 (Homo sapiens) (UniProt P52333). The assay is described as follows: Inhibition of N-terminal His-tagged human JAK3 catalytic domain (795 to 1124 residues) expressed in baculovirus-infected Sf21 cells using Srctide as substrate at 1 uM in presence of ATP by Mobility shift assay.
Sequence of Tyrosine-protein kinase JAK3 (Homo sapiens) (P52333 whole entry, the tested form may be a part): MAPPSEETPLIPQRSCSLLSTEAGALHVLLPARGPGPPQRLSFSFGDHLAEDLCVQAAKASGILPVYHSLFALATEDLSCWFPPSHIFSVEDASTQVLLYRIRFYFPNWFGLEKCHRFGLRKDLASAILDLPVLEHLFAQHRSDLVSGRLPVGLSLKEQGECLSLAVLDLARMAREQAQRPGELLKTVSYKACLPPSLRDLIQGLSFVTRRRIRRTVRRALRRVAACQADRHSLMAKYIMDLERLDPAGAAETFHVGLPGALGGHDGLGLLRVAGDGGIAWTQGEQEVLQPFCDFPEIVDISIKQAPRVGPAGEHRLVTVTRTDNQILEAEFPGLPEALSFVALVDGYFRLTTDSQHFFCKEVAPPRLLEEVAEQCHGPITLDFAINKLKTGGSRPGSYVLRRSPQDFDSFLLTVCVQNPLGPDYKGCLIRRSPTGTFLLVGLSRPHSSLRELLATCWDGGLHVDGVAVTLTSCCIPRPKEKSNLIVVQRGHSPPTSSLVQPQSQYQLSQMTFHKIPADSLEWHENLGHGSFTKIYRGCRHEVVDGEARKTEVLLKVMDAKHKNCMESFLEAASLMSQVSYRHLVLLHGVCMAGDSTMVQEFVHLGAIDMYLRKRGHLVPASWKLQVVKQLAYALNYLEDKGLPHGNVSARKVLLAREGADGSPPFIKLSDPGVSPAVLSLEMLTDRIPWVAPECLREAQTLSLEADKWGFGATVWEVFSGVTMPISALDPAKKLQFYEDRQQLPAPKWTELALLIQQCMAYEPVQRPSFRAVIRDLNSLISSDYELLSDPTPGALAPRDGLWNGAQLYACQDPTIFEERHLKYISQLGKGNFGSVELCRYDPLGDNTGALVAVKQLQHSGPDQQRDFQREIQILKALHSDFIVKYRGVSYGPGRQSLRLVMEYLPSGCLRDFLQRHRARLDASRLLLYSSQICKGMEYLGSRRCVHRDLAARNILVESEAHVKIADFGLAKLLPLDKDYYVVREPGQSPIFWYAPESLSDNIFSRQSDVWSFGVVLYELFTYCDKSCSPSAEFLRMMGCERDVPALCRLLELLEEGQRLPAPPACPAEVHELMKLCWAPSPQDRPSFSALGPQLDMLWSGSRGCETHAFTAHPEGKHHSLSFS
In assay [20] the target is Mitogen-activated protein kinase 10 (Homo sapiens) (UniProt P53779). In words: Inhibition of N-terminal GST-fused full length human JNK3 (1 to 426 residues) expressed in Escherichia coli expression system using Modified ERKtide as substrate at 1 uM in presence of ATP by Mobility shift assay.
Assay [21] deals with Serine/threonine-protein kinase BRSK2 (Homo sapiens) (UniProt Q8IWQ3). In words: Inhibition of N-terminal GST-tagged full length human BRSK2 (1 to 674 residues) expressed in baculovirus-infected Sf21 cells using CHKtide as substrate at 1 uM in presence of ATP by Mobility shift assay.
Assay [22] has as its target [Pyruvate dehydrogenase (acetyl-transferring)] kinase isozyme 2, mitochondrial (Homo sapiens) (UniProt Q15119). In words: Inhibition of N-terminal GST-fused full length human PDHK2 (1 to 407 residues) expressed in baculovirus expression system using PDHKtide as substrate at 1 uM in presence of ATP by Mobility shift assay.

Sequence of Mitogen-activated protein kinase 13 (Homo sapiens) (O15264 whole entry, the tested form may be a part): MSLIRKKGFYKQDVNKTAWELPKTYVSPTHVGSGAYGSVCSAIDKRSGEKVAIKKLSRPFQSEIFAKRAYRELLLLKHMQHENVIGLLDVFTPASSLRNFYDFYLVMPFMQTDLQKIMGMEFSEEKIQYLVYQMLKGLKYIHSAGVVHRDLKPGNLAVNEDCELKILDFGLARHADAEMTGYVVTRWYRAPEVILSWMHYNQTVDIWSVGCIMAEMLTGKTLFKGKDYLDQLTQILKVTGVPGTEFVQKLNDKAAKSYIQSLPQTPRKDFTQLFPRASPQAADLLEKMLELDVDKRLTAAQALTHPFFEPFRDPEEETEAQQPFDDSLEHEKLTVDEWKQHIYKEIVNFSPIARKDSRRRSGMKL
Sequence of Ephrin type-A receptor 4 (Homo sapiens) (P54764 whole entry, the tested form may be a part): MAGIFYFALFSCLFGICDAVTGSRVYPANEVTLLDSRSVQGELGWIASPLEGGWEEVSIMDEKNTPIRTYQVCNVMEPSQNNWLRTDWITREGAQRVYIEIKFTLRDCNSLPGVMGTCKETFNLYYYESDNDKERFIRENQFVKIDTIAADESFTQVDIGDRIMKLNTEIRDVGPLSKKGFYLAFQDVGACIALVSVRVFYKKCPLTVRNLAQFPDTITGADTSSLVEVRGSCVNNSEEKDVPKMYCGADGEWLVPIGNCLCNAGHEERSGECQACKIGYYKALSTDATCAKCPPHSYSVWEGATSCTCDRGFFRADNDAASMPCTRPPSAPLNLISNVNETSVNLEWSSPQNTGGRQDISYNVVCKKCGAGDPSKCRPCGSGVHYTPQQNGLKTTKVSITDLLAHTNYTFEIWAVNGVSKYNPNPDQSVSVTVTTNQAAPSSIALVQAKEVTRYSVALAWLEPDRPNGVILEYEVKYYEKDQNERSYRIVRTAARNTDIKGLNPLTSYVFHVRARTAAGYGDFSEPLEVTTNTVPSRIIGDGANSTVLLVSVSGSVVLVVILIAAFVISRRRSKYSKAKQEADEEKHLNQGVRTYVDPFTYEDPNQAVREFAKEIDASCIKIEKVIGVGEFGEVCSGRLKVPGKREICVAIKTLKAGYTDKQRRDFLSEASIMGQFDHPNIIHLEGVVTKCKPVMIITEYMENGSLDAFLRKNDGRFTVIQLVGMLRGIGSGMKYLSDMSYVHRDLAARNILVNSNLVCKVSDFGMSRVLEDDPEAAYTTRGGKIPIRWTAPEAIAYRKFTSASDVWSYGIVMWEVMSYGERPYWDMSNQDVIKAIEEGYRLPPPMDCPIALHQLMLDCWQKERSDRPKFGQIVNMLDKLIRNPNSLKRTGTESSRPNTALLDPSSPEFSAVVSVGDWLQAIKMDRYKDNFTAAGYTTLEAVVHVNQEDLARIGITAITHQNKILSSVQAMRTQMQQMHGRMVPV

For orientation: inhibition means the change of the read-out against control, counted positive when it falls. Regarding `Cc1cc(C)c(CNC(=O)c2cc(Br)c3c(c2C)O[C@@](C)([C@H]2CC[C@H](N(C)C)CC2)O3)c(=O)[nH]1`, the inhibition in assay [1] was -2.5%; in assay [2] it was 0.7%; in [3], -2.4%; in assay [4], -1.6%; in assay [5], -3.3%; in assay [6], 1.5%. In addition, the inhibition was -4.7% in [7]; 1.6% in [8]; -0.3% in assay [9]; -2% in assay [10]; -4.3% in [11]; 0.1% in [12]. Further, the inhibition was -6.6% in [13]; 2.7% in assay [14]; -4.5% in assay [15]; -3.9% in assay [16]; -3.3% in assay [17]; -1.4% in [18]. In addition, the inhibition is -1.7% in assay [19], -2.9% in assay [20], 6.6% in assay [21] and 1.6% in [22].

With `Cc1cc(C)c(CNC(=O)c2cc(Cl)c3c(c2C)O[C@@](C)([C@H]2CC[C@H](N(C)C)CC2)O3)c(=O)[nH]1` [VALEMETOSTAT], the inhibition in assay [1] is -3.3%; in assay [2] it was 5.7%; in assay [3], -8.8%; in [4], 2.5%; in [5], -1.9%; in assay [6], 2.7%. For the same compound, the inhibition in assay [7] is -6.9%; in assay [8] it was 3.3%; in assay [9], 3%; in assay [10] it was 1.6%; in assay [11] it was -3%; in assay [12], -2%. Also, the inhibition is -8.8% in [13]; -9.8% in assay [14]; 2.1% in assay [15]; -3% in assay [16]; -1.9% in [17]; -4.5% in [18]. In addition, the inhibition in [19] was -4%; in [20], -5.8%; in assay [21], 11.2%; in assay [22], 1.4%.
